Consider seven compounds from paper PMC8002323 (Molecules, 2021).

Usually IC50 stands for the concentration at which inhibition is half-maximal.

Data set [1] concerns the target T1, AChE (type VI-S, from electric eel) (Electrophorus electricus, UniProt O42275).
T1 construct: purchased
The data set can be described thus: biochemical. In kind it is biochemical. The note with it: for IC50: AChE from Electric eel, mean of two independent experiments ± SD, read-out: AChE Inhib. IC50 ± SD; for AChE inhibition (in words): AChE from electric eel. Here is the method:
The acetylcholinesterase inhibitory activity was assessed by an adaptation of the Ellman’s method. The assay solution contained 4-(2-hydroxyethyl)-1-piperazineethanesulfonic acid (HEPES) buffer (50 mM, pH 8.0), 5,5′-dithiobis-(2-nitrobenzoic acid) (DTNB, 3 mM), the stock solution of each compound in methanol (1 mg/mL), AChE (type VI-S, from electric eel) and the required quantity of methanol to reach the desired volume of sample mixture in a 1 mL cuvette. Samples were incubated for 15 min and then 75 μL of acetylthiocholine iodide (AThChI) solution (16 mM) was added. The reaction was monitored for 5 min at 405 nm. Assays were run with a blank containing all the reagents but AChE. Reaction rates were calculated as well as the enzyme activity. A positive control reaction was performed using methanol as a sample solution. The fraction of enzyme inhibition due to the existence of rising concentration of the test compound was calculated using Equation (1), where vi = starting reaction rate in the presence of inhibitor; vo = starting reaction rate of the control reaction. (1) %I =100−100 × […]
The inhibition curves were achieved by plotting the percentage of enzymatic inhibition against inhibitor concentration and a calibration curve was got from which the linear regression parameters were obtained.

Data set [2] addresses T2, Aβ1–42 (Homo sapiens, UniProt P05067). The data set can be described thus: Inhibition of self-induced Aβ1–42 aggregation (thioflavin-T fluorescence method). As to conditions: read-out: Aβ1–42 Aggreg. Inhib.
Method: Inhibitory capacity of the compounds for the Aβ1–42 aggregation was assessed based on the fluorescence properties of thioflavine T (ThT), measured with a Varian Cary Eclipse spectrofluorometer.
A previously prepared solution of Aβ1–42 was used.
To the resulting alkaline Aβ1–42 solution was added phosphate buffer (pH 8.0). The compounds tested were diluted in MeOH (1 mg/mL) and then further diluted in phosphate buffer. Two different types of experiments were prepared in a final volume of 60 μL. The solution for the control ligand assay consists in 30 µL of phosphate buffer and 30 µL of Aβ1–42 solution, to evaluate the aggregation without any inhibition, while the solution for the ligand assay consists of 20 µL of phosphate buffer, 30 µL of Aβ1–42 solution and 10 µL of the ligand solution, to evaluate the effect of the ligand in the aggregation. For each experiment a blank sample, without Aβ1–42, is used to monitor the effect of the compounds in the fluorescence. These samples were left incubating in a water bath (CERTOMAT WR), for 24 h, at 37 °C with gentle shaking [14].
A glycine-NaOH buffer (pH 8.5) containing ThT (5 μM) was added to each sample. Samples were placed in a microplate and the fluorescence signal was monitored at 446 nm (λexc) and 490 nm (λem) [40].
(2) %I=100−Fi/F0× 100 where Fi and F0 are the fluorescence intensities in the presence and absence of the compound, respectively, minus the fluorescence intensities of the respective blanks. Statistical analysis was performed in Microsoft Office Excel®.
Data set [3] has as its system SH-SY5Y human neuroblastoma cells. The data set can be described thus: Dose-response screening of cell viability (MTT reduction assay). In kind it is cell-based. As to conditions: SH-SY5Y cells treated 25 h, 2.5–50 μM. Here is the method:
(§1) SH-SY5Y human neuroblastoma cells (ATCC-CRL-2266) (American Type Culture Collection, Manassas, Virgínia, USA) were plated in DMEM/F12 (Dulbecco’s Modified Eagle Medium/Ham’s F-12 Nutrient Mixture; Thermo Fisher Scientific) with 10% heat inactivated fetal bovine serum, 50 U/mL penicillin and 50 U/mL streptomycin under a humidified atmosphere with 95% relative humidity at 37 °C at a 0.16 × 10^6 cells/mL density. Each of the tested substances (6, 7, 8, 9) were dissolved in DMSO to prepare a stock solution at a 25 mM concentration and stored at −20 °C until further use. SH-SY5Y cells were treated for 25 h with varying concentrations of compounds, in order to select the highest non-toxic concentration. The selected concentrations for each compound were: 40 µM final concentration for 6; 15 µM final concentration for 7; 30 µM final concentration for 8 and 2.5 µM final concentration for 9. […] For the neuroprotection assays, the incubation with Aβ1–42 or L-ascorbic acid/ferrous sulphate treatment was preceded with 1 h incubation of the compounds when needed. Pre-incubation was followed by 24 h treatment of Aβ1–42 or Fe/Asc, accounting a total of 25 h. Aβ1–42 was prepared as 276.9 µM stock in sterile water and administrated in the medium at a 2.5 µM final concentration. Ferrous sulphate was freshly prepared as 0.36 M stock in water and added to the medium at 2.5 mM final concentration. L-ascorbic acid was freshly prepared as 80 mM stock in water and added to the medium at 5 mM final concentration. Aβ1–42 was purchased from Bachem (Torrance, CA, USA) and ferrous sulphate and L-ascorbic acid from Sigma Chemical Co. (St. Louis, MO, USA).
Cellular viability was determined by employing the MTT (3-(4,5-dimethylthiazol-2-yl)-2,5-diphenyltetrazolium bromide) reduction assay, according to the Mosmann method. This colorimetric test consists in the ability of the succinate dehydrogenase enzyme from viable cells to metabolize the MTT into a formazan. In the end of treatments, cells medium was aspirated and cells were washed with 1 × PBS (phosphate-buffered saline) to remove dead cells. MTT solution (200 µL, 0.5 mg/mL) was added to each well and incubated for 2 h protected from light. Formazan precipitates were then dissolved in DMSO and absorbance measured at 570 nm. The ability to reduce MTT was expressed as a percentage of untreated, control cells.
(Tetrazolium dyes change colour on reduction, which living cells bring about.)

Another data set concerns SH-SY5Y cells. Description: Neuroprotective effect on Aβ42-induced toxicity (MTT reduction assay). Format: cell-based, human. The note with it: Aβ42 2.5 μM 24 h, 1 h pre-incubation; 7 (15 µM), 8 (30 µM), 9 (2.5 µM). Here is the method:
as §1
Cellular viability was determined by employing the MTT (3-(4,5-dimethylthiazol-2-yl)-2,5-diphenyltetrazolium bromide) reduction assay, according to the Mosmann method. […] Formazan precipitates were then dissolved in DMSO and absorbance measured at 570 nm. The ability to reduce MTT was expressed as a percentage of untreated, control cells.

Data set [4] has as its target T2, Aβ1–42. As to conditions: self-induced aggregation, literature value for DNP; ref [3],[27]; cited from earlier work.

Where “and” joins values, the source holds several entries; their conditions need not be identical. Identical values can stand only once.

T1 sequence (O42275 24-633): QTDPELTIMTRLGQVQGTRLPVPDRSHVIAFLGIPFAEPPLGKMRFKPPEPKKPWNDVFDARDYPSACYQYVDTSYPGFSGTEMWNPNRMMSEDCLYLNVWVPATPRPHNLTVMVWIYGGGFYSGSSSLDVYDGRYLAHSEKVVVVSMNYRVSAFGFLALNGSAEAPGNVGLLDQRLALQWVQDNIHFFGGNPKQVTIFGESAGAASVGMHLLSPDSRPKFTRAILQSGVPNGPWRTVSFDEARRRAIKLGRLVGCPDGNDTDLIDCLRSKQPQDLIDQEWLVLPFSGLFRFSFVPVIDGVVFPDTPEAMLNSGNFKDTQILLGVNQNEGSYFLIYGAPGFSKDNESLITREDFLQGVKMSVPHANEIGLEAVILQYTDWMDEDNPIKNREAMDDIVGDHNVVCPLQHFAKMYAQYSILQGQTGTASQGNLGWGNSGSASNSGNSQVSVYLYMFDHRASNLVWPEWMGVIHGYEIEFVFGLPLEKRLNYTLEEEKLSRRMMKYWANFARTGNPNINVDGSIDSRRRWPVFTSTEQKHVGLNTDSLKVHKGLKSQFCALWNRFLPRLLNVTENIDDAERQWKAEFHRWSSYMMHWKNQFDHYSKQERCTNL
T2 sequence (P05067 672-713 limits assumed): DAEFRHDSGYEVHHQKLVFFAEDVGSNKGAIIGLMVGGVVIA

With `Cc1ccc(S(=O)(=O)NCCN2CCN(Cc3ccccc3)CC2)cc1` [Compound 5, N-(2-(4-benzylpiperazin-1-yl)ethyl)-4-methylbenzenesulfonamide], in data set [1], the IC50 was at least 100 µM and the “AChE inhibition (in words)” value is given as “do not show significant inhibition”. Moreover, the inhibition at 40 µM on Aβ1–42 [2] was 41.8%.

As to `COc1ccc(S(=O)(=O)NCC2CCN(Cc3ccccc3)CC2)cc1` [Compound 8, N-((1-benzylpiperidin-4-yl)methyl)-4-methoxybenzenesulfonamide], the IC50 in data set [1] is 1.6 to 6.2 µM and 6.2 µM. Further, the “highest non-toxic concentration (selected concentration)” value in data set [3] worked out at 30 µM. In the data set on SH-SY5Y cells, the “reversal of neurotoxicity induced by Aβ peptides (in words)” value (“reversal of neurotoxicity induced” for short) was “more modest results in reverting neurotoxicity”. The inhibition at 40 µM at Aβ1–42 [2] was found to be 64.2%.

As to `O=S(=O)(NCCN1CCN(Cc2ccccc2)CC1)c1ccc(-c2ccccc2)cc1` [Compound 7, N-(2-(4-benzylpiperazin-1yl)ethyl)-[1,1’-biphenyl]-4-sulfonamide], the IC50 in data set [1] amounted to 38.7 ± 0.2 µM. In data set [3], the “highest non-toxic concentration (selected concentration)” value came to 15 µM. For the same compound, the “reversal of neurotoxicity induced” value in the data set with SH-SY5Y cells is “able to relapse the neurotoxicity induced by Aβ peptides”. In addition, the inhibition at 40 µM on Aβ1–42 [2] was 34.6%.

As to `COc1cc2c(cc1OC)C(=O)C(CC1CCN(Cc3ccccc3)CC1)C2` (stereo not drawn) [DNP, donepezil], the “Aβ1–42 Aggreg. Inhib.” value on Aβ1–42 [4] was under 5%.

For `O=S(=O)(NCC1CCN(Cc2ccccc2)CC1)c1ccc(-c2ccccc2)cc1` [Compound 9, N-((1-benzylpiperidin-4-yl)methyl)-[1,1’-biphenyl]-4-sulfonamide], the 50% inhibitory concentration (IC50) in data set [1] is 1.6 to 6.2 µM and 1.6 µM. Moreover, the “highest non-toxic concentration (selected concentration)” value in data set [3] turned out to be 2.5 µM. Also, in the data set on SH-SY5Y cells, the “reversal of neurotoxicity induced” value is “more modest results in reverting neurotoxicity”. The inhibition at 40 µM at Aβ1–42 [2] was determined as 60.7%.

For the compound `COc1ccc(S(=O)(=O)NCCN2CCN(Cc3ccccc3)CC2)cc1` [Compound 6, N-(2-(4-benzylpiperazin-1-yl)ethyl)-4-methoxybenzenesulfonamide], in data set [1], the half-maximal inhibitory concentration (IC50) worked out at 89 ± 9 µM and the “AChE inhibition (in words)” value was “do not show significant inhibition”. Further, the “highest non-toxic concentration (selected concentration)” value in data set [3] was determined as 40 µM. The inhibition at 40 µM on Aβ1–42 [2] came out at 37.2%.

`Nc1c2c(nc3ccccc13)CCCC2` [Tacrine, tacrine, reference compound]: the inhibition at 40 µM at Aβ1–42 [2] is 54.5%.
